Measured values taken from ChEMBL document CHEMBL1139689, “Discovery and preliminary structure-activity relationship studies of novel benzotriazine based compounds as Src inhibitors” (Bioorg Med Chem Lett, 2006).

Key:
[1] = target: Proto-oncogene tyrosine-protein kinase Src (Homo sapiens, UniProt P12931)
[2] = target: Angiopoietin-1 receptor (Homo sapiens, UniProt Q02763); experiment: Inhibition of Tie2
[3] = target: Tyrosine-protein kinase ABL1 (Homo sapiens, UniProt P00519); experiment: Inhibition of Abl
[4] = target: Serine/threonine-protein kinase RAF and Dual specificity mitogen-activated protein kinase kinase 1 (Raf/MEK) (Homo sapiens, UniProt P04049+Q02750); experiment: Inhibition of Raf1-MEK1; assay type: protein assay
[5] = target: Vascular endothelial growth factor receptor 2 (Homo sapiens, UniProt P35968); experiment: Inhibition of VEGFR2
[6] = target: Ribosomal protein S6 kinase beta-1 (Homo sapiens, UniProt P23443); experiment: Inhibition of p70S6K
Ribosomal protein S6 kinase beta-1, sequence (P23443 whole entry): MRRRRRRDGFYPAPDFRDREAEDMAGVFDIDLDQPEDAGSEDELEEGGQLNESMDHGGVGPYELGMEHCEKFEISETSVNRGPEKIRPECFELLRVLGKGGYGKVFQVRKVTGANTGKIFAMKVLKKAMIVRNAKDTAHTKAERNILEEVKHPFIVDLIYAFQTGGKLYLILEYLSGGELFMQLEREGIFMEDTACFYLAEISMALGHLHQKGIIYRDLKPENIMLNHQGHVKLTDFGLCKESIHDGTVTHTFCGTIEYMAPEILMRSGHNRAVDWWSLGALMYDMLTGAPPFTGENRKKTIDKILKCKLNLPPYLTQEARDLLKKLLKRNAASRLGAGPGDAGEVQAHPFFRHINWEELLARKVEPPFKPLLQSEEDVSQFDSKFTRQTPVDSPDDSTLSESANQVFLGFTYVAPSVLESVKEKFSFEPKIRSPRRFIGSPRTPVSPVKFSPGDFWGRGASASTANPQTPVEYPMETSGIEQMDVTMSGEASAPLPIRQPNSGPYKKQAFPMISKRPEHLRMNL

[7] = target: Tyrosine-protein kinase Blk (Homo sapiens, UniProt P51451); experiment: Inhibition of Blk
Tyrosine-protein kinase Blk, sequence (P51451 whole entry): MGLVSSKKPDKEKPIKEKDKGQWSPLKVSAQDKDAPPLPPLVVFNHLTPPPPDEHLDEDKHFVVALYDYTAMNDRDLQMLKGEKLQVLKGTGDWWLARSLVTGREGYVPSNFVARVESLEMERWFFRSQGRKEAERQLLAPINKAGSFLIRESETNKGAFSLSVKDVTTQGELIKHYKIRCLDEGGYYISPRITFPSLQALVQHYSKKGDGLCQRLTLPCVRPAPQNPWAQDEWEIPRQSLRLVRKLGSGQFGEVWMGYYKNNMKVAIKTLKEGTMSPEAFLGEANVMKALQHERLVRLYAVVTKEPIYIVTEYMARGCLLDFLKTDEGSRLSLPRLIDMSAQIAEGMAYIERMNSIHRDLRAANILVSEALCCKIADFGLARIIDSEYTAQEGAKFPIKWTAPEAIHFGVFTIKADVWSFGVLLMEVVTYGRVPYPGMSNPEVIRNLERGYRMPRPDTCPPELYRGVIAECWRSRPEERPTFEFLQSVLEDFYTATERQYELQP

[8] = target: Tyrosine-protein kinase ABL1 (Homo sapiens, UniProt P00519, T315I); experiment: Inhibition of Abl T315I mutant
[9] = target: Tyrosine-protein kinase CSK (Homo sapiens, UniProt P41240); experiment: Inhibition of CSK
Tyrosine-protein kinase CSK, sequence (P41240 whole entry): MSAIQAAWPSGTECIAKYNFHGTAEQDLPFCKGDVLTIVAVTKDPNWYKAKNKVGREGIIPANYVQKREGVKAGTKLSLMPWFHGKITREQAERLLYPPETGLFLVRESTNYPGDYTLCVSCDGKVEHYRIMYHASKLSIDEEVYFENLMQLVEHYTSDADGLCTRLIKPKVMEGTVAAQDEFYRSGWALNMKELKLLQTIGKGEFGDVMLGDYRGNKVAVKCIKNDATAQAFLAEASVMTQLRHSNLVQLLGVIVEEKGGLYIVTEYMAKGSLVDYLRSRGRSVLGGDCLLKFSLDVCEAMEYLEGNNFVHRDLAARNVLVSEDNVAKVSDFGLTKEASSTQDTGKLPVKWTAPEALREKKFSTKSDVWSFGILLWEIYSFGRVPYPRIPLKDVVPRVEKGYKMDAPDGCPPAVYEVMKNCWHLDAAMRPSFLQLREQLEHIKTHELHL

[10] = target: Tyrosine-protein kinase Lyn (Homo sapiens, UniProt P07948); experiment: Inhibition of Lyn
Tyrosine-protein kinase Lyn, sequence (P07948 whole entry): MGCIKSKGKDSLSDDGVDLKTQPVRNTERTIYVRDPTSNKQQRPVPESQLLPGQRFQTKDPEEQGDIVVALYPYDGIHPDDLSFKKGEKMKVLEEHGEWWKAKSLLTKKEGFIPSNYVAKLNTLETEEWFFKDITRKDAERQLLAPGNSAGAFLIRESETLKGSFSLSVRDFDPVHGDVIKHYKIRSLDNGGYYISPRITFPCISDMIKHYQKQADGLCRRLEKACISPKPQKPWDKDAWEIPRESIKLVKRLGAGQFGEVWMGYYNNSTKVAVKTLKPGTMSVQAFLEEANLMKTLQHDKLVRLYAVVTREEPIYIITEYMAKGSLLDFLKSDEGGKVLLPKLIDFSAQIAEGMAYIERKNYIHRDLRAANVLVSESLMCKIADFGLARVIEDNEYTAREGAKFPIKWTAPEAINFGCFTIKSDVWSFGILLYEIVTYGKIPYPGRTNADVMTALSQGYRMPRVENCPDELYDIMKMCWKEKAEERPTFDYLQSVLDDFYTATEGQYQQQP

[11] = target: RAF proto-oncogene serine/threonine-protein kinase (Homo sapiens, UniProt P04049); experiment: Inhibition of Raf1 kinase
RAF proto-oncogene serine/threonine-protein kinase, sequence (P04049 whole entry): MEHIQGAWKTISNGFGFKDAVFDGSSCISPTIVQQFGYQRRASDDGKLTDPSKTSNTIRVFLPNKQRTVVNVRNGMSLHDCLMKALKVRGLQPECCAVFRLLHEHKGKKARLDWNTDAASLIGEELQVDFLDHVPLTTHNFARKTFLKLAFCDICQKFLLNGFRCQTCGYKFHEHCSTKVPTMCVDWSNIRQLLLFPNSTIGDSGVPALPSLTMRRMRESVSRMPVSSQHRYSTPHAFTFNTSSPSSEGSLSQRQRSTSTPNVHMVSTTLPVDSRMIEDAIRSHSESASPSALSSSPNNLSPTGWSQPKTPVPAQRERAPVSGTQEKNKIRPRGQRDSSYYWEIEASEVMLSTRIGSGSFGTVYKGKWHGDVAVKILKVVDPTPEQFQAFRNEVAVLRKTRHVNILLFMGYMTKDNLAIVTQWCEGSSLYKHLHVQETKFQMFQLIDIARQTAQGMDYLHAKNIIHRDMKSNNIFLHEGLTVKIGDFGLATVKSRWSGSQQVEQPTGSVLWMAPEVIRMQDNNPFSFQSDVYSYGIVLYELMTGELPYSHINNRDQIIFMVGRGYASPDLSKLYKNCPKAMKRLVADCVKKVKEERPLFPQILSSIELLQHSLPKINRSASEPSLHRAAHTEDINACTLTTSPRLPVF

[12] = target: Tyrosine-protein kinase Fyn (Homo sapiens, UniProt P06241); experiment: Inhibition of Fyn
Tyrosine-protein kinase Fyn, sequence (P06241 whole entry): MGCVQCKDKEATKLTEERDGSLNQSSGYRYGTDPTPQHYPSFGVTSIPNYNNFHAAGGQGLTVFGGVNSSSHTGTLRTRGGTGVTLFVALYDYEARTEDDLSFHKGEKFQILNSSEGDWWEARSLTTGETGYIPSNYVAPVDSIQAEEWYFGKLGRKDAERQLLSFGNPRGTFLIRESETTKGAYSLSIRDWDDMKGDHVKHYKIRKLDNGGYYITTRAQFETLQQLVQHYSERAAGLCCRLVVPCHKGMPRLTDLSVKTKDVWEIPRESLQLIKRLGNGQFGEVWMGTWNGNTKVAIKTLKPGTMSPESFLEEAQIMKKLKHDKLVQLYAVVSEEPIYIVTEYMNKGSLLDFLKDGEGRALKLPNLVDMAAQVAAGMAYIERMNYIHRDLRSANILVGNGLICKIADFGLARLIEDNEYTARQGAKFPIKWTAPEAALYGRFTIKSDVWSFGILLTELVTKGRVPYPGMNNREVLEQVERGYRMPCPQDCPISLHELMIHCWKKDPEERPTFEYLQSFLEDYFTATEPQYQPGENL

Proto-oncogene tyrosine-protein kinase Src, sequence (P12931 2-536 limits assumed): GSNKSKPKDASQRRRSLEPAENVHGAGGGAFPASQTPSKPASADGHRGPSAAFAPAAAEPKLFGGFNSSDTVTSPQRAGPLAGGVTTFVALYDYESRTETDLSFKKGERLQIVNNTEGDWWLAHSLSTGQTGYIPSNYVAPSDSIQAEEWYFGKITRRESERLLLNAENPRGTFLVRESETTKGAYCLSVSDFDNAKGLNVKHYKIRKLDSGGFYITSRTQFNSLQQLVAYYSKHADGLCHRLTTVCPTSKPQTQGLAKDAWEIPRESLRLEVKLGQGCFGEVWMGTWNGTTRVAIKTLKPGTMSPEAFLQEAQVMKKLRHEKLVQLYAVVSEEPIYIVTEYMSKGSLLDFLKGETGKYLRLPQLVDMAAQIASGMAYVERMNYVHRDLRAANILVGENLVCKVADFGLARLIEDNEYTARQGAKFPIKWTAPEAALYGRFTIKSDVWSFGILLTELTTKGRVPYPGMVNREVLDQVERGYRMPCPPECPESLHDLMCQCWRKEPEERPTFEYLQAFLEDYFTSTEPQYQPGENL
Angiopoietin-1 receptor, sequence (Q02763 whole entry): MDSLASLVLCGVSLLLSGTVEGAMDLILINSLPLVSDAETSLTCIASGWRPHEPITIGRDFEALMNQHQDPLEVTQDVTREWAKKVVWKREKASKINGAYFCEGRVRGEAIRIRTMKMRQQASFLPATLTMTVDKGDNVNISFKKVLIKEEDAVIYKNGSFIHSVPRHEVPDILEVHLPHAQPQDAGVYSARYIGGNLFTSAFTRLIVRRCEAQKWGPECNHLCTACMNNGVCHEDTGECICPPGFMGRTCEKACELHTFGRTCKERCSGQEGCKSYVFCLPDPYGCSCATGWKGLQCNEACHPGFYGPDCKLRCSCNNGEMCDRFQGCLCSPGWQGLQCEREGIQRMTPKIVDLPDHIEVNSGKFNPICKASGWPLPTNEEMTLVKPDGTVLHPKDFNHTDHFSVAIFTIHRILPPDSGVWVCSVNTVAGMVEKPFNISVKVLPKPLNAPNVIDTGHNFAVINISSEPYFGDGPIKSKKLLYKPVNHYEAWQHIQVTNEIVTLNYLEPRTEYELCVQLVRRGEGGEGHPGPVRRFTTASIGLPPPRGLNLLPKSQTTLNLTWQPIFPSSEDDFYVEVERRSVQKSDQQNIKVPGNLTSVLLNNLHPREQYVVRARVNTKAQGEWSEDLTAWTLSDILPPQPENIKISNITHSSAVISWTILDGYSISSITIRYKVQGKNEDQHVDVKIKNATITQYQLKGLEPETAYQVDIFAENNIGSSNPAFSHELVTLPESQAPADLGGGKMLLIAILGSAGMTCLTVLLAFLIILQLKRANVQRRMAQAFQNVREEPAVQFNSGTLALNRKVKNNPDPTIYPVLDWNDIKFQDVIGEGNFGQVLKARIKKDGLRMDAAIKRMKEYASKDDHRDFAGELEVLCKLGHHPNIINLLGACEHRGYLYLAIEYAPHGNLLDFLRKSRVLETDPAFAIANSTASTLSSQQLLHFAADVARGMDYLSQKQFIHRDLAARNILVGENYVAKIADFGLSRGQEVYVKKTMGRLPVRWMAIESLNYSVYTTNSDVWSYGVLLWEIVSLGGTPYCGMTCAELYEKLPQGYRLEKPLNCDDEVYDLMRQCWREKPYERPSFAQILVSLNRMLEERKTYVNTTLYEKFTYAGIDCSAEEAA

Row | Structure (SMILES) | IC50 [1] | also measured
1 | Cc1cccc(C)c1-c1cc(C)c2nc(Nc3cccc(S(=O)(=O)N4CCNCC4)c3)nnc2c1 | 480 nM | 
2 | Cc1cc(-c2c(Cl)cccc2Cl)cc2nnc(N)nc12 | 3600 nM | 
3 | Cc1cc(C)c(-c2cc(C)c3nc(Nc4ccccc4)nnc3c2)c(C)c1 | > 50000 nM | 
4 | Cc1cccc(C)c1-c1cc(C)c2nc(Nc3cccc4cccnc34)nnc2c1 | > 50000 nM | 
5 | Cc1cccc(C)c1-c1cc(C)c2nc(N)nnc2c1 | 7400 nM | 
6 | Cc1cc(-c2cc(O)ccc2Cl)cc2nnc(N)nc12 | 1500 nM | 
7 | CCOC1CN(C)CCN1c1cccc(Nc2nnc3cc(-c4c(C)cccc4C)cc(C)c3n2)c1 (stereo not given) | 41 nM | 
8 | Nc1nnc2cc(-c3ccccc3)ccc2n1 | > 50000 nM | 
9 | Cc1cccc(Nc2nnc3cc(-c4c(C)cccc4C)cc(C)c3n2)c1C | > 50000 nM | 
10 | CCN(CC)CCOc1ccc(Nc2nnc3cc(-c4c(C)cccc4C)cc(C)c3n2)cc1 | 10 nM | 
11 | Cc1cccc(C)c1-c1cc(C)c2nc(Nc3ccccn3)nnc2c1 | > 50000 nM | 
12 | CCCCc1ccc(Nc2nnc3cc(-c4c(C)cccc4C)cc(C)c3n2)cc1 | > 50000 nM | 
13 | Cc1cccc(C)c1-c1cc(C)c2nc(Nc3ccncc3)nnc2c1 | 40 nM | 
14 | CC(=O)Nc1nnc2cc(-c3c(C)cccc3C)cc(C)c2n1 | > 50000 nM | 
15 | Cc1cccc(C)c1-c1ccc2nc(N)nnc2c1 | 2200 nM | 
16 | Cc1cccc(C)c1-c1cc(C)c2nc(Nc3ccccc3)nnc2c1 | 410 nM | 
17 | Cc1ccc(C)c(Nc2nnc3cc(-c4c(C)cccc4C)cc(C)c3n2)c1 | > 50000 nM | 
18 | CCCOC1CN(C)CCN1c1cccc(Nc2nnc3cc(-c4c(C)cccc4C)cc(C)c3n2)c1 (stereo not given) | 40 nM | 
19 | Cc1cc(-c2ccccc2Cl)cc2nnc(N)nc12 | > 50000 nM | 
20 | COc1ccccc1Nc1nnc2cc(-c3c(C)cccc3C)cc(C)c2n1 | > 50000 nM | 
21 | Nc1nnc2cc(-c3ccc4c(c3)OCO4)ccc2n1 | 12000 nM | 
22 | Nc1nnc2cc(-c3ccc4ccccc4c3)ccc2n1 | 5200 nM | 
23 | CCOC1CN(c2ccc(Nc3nnc4cc(-c5c(C)cccc5C)cc(C)c4n3)cc2)CCO1 (stereo not given) | 32 nM | 
24 | Cc1cccc(C)c1-c1cc(C)c2nc(Nc3ccc(OCCN4CCCC4)cc3)nnc2c1 |  | IC50 [2]: 678 nM; IC50 [3]: 20 nM; IC50 [4]: 69 nM; IC50 [5]: 555 nM; IC50 [6]: 2710 nM; IC50 [7]: 1320 nM; IC50 [8]: 5990 nM; IC50 [9]: 659 nM; IC50 [10]: 21 nM; IC50 [11]: 68 nM; IC50 [12]: 23 nM
25 | Cc1ccc(Nc2nnc3cc(-c4c(C)cccc4C)cc(C)c3n2)c(C)c1 | > 50000 nM | 
